In US20080108642A1 (Tsinghua University, priority 2006, published 2008):
“Also recorded” adds a separate entry of the source. Counter-ions that a name gives are not always drawn.

Tests used:
[1] = LC-DAD-MS analysis of ingredients in rat plasma after oral administration of QLY decoction; details: 20 minutes after oral administration of QLY decoction
Excerpt: Liquid chromatography simultaneously coupled with a diode array detector and a mass spectrometry detector (LC-DAD-MS) was used to analyze the pharmaceutical ingredients in rat plasma at different time points after oral administration of QLY decoction in order to determine the ingredients in QLY that could be absorbed into the body through metabolism. In this experiment, performed were comparison analyses of chromatogram and mass spectrum of QLY decoction and those of decoction of each of the constituent herbs of QLY, comparison analyses of chromatogram and mass spectrum of QLY decoction and those of QLY decoction plus blank plasma, comparison analyses of chromatogram and mass spectrum of blank plasma and those of post-administration plasma (blood sample taken at 20 min, 1 h, and 2 h respectively after oral administration of QLY decoction).

[2] = system: Human Umbilical Vein Endothelial Cells (HUVEC); experiment: Suppression of endothelial cell proliferation, separate and combined use (equivalent curve / response surface method); format: cell-based; details: separate use
Excerpt: Human Umbilical Vein Endothelial Cells (HUVEC) were employed in the experiment and the suppression rate on endothelial cell proliferation were monitored. Classical methods including equivalent curve method and the response surface method were used and the amount-effect curves were plotted.

Structure (SMILES)	detected in plasma of rats after oral administration of QLY [1]	effect on suppressing proliferation of endothelial cells (anti-angiogenesis activity) [2]	effect on suppressing proliferation of endothelial cells (anti-angiogenesis activity) ([2]; hydrochloride)
CN1C[C@@H]2C[C@H](C1)c1cccc(=O)n1C2 [N-methylcytisine]	small amounts		
O=C1CCCC2C3CCCN4CCCC(CN12)C34 (stereo not drawn) [matrine, Matrine]	detected	relatively strong; also recorded: remarkable effect	
COC1=C[C@@H]2[C@@H]3Cc4ccc(OC)c(O)c4[C@]2(CCN3C)CC1=O [sinomenine hydrochloride]			relatively strong; also recorded: remarkable effect
COC1=CC2C3Cc4ccc(OC)c(O)c4[C@]2(CCN3C)CC1=O (stereo partly drawn) [sinomenine, Sinomenine]	detected		
O=C1C=CC[C@@H]2[C@H]3CCCN4CCC[C@@H](CN12)[C@@H]34 [sophocarpine]	small amounts		
